Laboratory results reported in patent US9260408B2, “Dihydroquinoline-2-one derivatives” (Hoffmann-La Roche Inc., priority 2011, dated 2016).
Counter-ions that a name gives are not always drawn.

Tests used:
[1] = biological target: T1, human CYP11B1 (Homo sapiens, UniProt P15538); assay: G-402 cellular enzyme assay, human CYP11B1 (cortisol release, HTRF); assay type: cell-based; details: G-402 cells expressing human CYP11B1; 1 μM Deoxycortisol
T1 construct: expressed in transfected cells
T1 sequence (P15538 25-503): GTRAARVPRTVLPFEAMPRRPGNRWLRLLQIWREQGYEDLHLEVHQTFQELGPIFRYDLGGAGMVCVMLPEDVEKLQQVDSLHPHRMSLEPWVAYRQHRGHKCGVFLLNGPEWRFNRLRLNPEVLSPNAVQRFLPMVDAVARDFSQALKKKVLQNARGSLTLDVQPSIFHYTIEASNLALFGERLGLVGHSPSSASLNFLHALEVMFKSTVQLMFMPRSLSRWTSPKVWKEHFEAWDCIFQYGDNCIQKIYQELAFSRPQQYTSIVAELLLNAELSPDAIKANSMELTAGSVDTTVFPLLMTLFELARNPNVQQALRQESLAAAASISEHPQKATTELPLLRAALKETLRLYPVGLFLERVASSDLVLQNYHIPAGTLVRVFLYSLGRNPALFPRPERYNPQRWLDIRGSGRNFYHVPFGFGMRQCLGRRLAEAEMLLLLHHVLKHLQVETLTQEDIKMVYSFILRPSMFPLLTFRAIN
Procedure, shortened: (§1)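 EC50 comes from least-squares fitting of a 4-parameter MMF curve to steroid product levels, measured by HTRF as aldosterone for CYP11B2 or cortisol for CYP11B1. Stably transfected G-402 host cells were given substrate (1 μM deoxycorticosterone or deoxycortisol, respectively) with inhibitor for 16 h in medium with 2.5% charcoal-treated FCS.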

[2] = biological target: T2, human CYP11B2 (Homo sapiens, UniProt P19099); assay: G-402 cellular enzyme assay, human CYP11B2 (aldosterone release, HTRF); assay type: cell-based; details: G-402 cells expressing human CYP11B2; 1 μM Deoxycorticosterone
T2 construct: expressed in transfected cells
T2 sequence (P19099 25-503): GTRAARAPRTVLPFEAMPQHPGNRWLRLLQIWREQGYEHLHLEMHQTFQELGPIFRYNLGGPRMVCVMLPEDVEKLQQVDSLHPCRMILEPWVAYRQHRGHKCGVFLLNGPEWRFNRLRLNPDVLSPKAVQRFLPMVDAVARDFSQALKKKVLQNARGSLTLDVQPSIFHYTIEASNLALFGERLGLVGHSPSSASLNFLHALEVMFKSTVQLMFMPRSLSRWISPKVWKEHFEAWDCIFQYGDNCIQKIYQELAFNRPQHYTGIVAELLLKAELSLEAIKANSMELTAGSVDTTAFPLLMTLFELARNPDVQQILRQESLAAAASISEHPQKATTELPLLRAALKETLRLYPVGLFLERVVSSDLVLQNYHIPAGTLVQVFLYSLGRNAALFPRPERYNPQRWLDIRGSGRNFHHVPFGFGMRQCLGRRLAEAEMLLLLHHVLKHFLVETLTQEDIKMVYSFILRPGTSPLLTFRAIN
Procedure, shortened: as §1

| EC50 [1] | EC50 [2] | SMILES |
| --- | --- | --- |
| 350 nM | 11 nM | CN1C(=O)CCc2cc(-c3cncc(NCCO)c3)ccc21 [Example 4, 6-[5-(2-Hydroxy-ethylamino)-pyridin-3-yl]-1-methyl-3,4-dihydro-1H-quinolin-2-one] |
| 44 nM | 2 nM | CN1C(=O)CCc2cc(-c3cncc(CNC(=O)c4cnoc4C4CC4)c3)ccc21 [Example 107] |
| 142 nM | 8 nM | CN1C(=O)CCc2cc(-c3cncc(CNC(=O)c4cccc(Cl)n4)c3)ccc21 [Example 114] |
| 1680 nM | 22 nM | CN1C(=O)CCc2cc(-c3cncc(CNC(=O)c4cn(CC(F)(F)F)nc4C4CC4)c3)ccc21 [Example 96] |
| 557 nM | 12 nM | Cc1noc(C)c1C(=O)NCc1cncc(-c2ccc3c(c2)CCC(=O)N3C)c1Cl [Example 219, 3,5-Dimethyl-isoxazole-4-carboxylic acid [4-chloro-5-(1-methyl-2-oxo-1,2,3,4-tetrahydro-quinolin-6-yl)-pyridin-3-ylmethyl]-amide] |
| 1780 nM | 17 nM | CN1C(=O)CCc2cc(-c3cncc(CNC(=O)c4cc(Cl)nnc4Cl)c3)ccc21 [Example 95] |
| 81 nM | 4 nM | Cc1nc(C(=O)NCc2cncc(-c3ccc4c(c3)CCC(=O)N4C)c2)c(C)o1 [Example 111] |
| 493 nM | 43 nM | Cc1nnc(C(=O)NCc2cncc(-c3ccc4c(c3)CCC(=O)N4C)c2)o1 [Example 80] |
| 219 nM | 13 nM | CN1C(=O)CCc2cc(-c3cncc(OCCNC(=O)c4ncccc4Cl)c3)ccc21 [Example 233, 3-Chloro-pyridine-2-carboxylic acid {2-[5-(1-methyl-2-oxo-1,2,3,4-tetrahydro-quinolin-6-yl)-pyridin-3-yloxy]-ethyl}-amide] |
| 4830 nM | 51 nM | CCC(=O)NCc1cncc(-c2cc3c(cc2F)N(C)C(=O)CC3)c1 [Example 212, N-[5-(7-Fluoro-1-methyl-2-oxo-1,2,3,4-tetrahydro-quinolin-6-yl)-pyridin-3-ylmethyl]-propionamide] |

Continued, compound first:

| SMILES | EC50 [1] | EC50 [2] |
| --- | --- | --- |
| CCS(=O)(=O)NC(C)(C)c1cncc(-c2ccc3c(c2)CCC(=O)N3C)c1 [Example 183, Ethanesulfonic acid {1-methyl-1-[5-(1-methyl-2-oxo-1,2,3,4-tetrahydro-quinolin-6-yl)-pyridin-3-yl]-ethyl}-amide] | 268 nM | 4 nM |
| CC(NC(=O)c1ncccc1Cl)c1cncc(-c2ccc3c(c2)CCC(=O)N3C)c1Cl (single isomer, unassigned) [Example 251, 3-Chloro-pyridine-2-carboxylic acid {(R or S)-1-[4-chloro-5-(1-methyl-2-oxo-1,2,3,4-tetrahydro-quinolin-6-yl)-pyridin-3-yl]-ethyl}-amide] | 6 nM | 1 nM |
| COC[C@@H]1CCCN1c1cncc(-c2ccc3c(c2)CCC(=O)N3C)c1 [Example 10, 6-[5-((S)-2-Methoxymethyl-pyrrolidin-1-yl)-pyridin-3-yl]-1-methyl-3,4-dihydro-1H-quinolin-2-one] | 170 nM | 20 nM |
| CCS(=O)(=O)N1CC(Oc2cncc(-c3ccc4c(c3)CCC(=O)N4C)c2)C1 [Example 170, 6-[5-(1-Ethanesulfonyl-azetidin-3-yloxy)-pyridin-3-yl]-1-methyl-3,4-dihydro-1H-quinolin-2-one] | 699 nM | 15 nM |
| CC(=O)N1CC[C@H](Oc2cncc(-c3ccc4c(c3)CCC(=O)N4C)c2)C1 [Example 254, 6-[5-((S)-1-Acetyl-pyrrolidin-3-yloxy)-pyridin-3-yl]-1-methyl-3,4-dihydro-1H-quinolin-2-one] | 49 nM | 1 nM |
| CN1C(=O)CCc2cc(-c3cncc(OCCNC(=O)c4ncccc4Cl)c3)c(F)cc21 [Example 244, 3-Chloro-pyridine-2-carboxylic acid {2-[5-(7-fluoro-1-methyl-2-oxo-1,2,3,4-tetrahydro-quinolin-6-yl)-pyridin-3-yloxy]-ethyl}-amide] | 75 nM | 2 nM |
| CCC(=O)N1CC[C@H](Oc2cncc(-c3cc4c(cc3F)N(C)C(=O)CC4)c2)C1 [Example 122] | 535 nM | 9 nM |
| CCC(=O)N1CC(Oc2cncc(-c3ccc4c(c3)CCC(=O)N4C)c2)C1 [Example 129] | 613 nM | 30 nM |
| CCC(=O)NC(C)c1cncc(-c2ccc3c(c2)CCC(=O)N3C)c1Cl (single isomer, unassigned) [Example 261, N-{(R or S)-1-[4-Chloro-5-(1-methyl-2-oxo-1,2,3,4-tetrahydro-quinolin-6-yl)-pyridin-3-yl]-ethyl}-propionamide] | 1220 nM | 62 nM |
| CN1C(=O)CCc2cc(-c3cncc(OC4CCNCC4)c3)ccc21 [Example 62, 1-Methyl-6-[5-(piperidin-4-yloxy)-pyridin-3-yl]-3,4-dihydro-1H-quinolin-2-one hydrochloride] | 8540 nM | 177 nM |
| CCS(=O)(=O)NCc1cncc(-c2ccc3c(n2)CCC(=O)N3C)c1 [Example 32, Ethanesulfonic acid [5-(5-methyl-6-oxo-5,6,7,8-tetrahydro-[1,5]naphthyridin-2-yl)-pyridin-3-ylmethyl]-amide] | > 10000 nM | 1290 nM |
| CCC(=O)N1CCC[C@H]1COc1cncc(-c2ccc3c(c2)CCC(=O)N3C)c1 [Example 106] | 2680 nM | 20 nM |
| CN(Cc1cncc(-c2cc3c(cc2F)N(C)C(=O)CC3)c1)C(=O)c1ncccc1Cl [Example 200, 3-Chloro-pyridine-2-carboxylic acid [5-(7-fluoro-1-methyl-2-oxo-1,2,3,4-tetrahydro-quinolin-6-yl)-pyridin-3-ylmethyl]-methyl-amide] | 31 nM | 1 nM |
| CC(N)c1cncc(-c2ccc3c(c2)CCC(=O)N3C)c1Cl (single isomer, unassigned) [Example 250, 6-[5-((R or S)-1-Amino-ethyl)-4-chloro-pyridin-3-yl]-1-methyl-3,4-dihydro-1H-quinolin-2-one hydrochloride] | 1250 nM | 35 nM |
| CCS(=O)(=O)NCc1cncc(-c2cc3c4c(c2)CCN4C(=O)CC3)c1 [Example 234, Ethanesulfonic acid [5-(4-oxo-1,2,5,6-tetrahydro-4H-pyrrolo[3,2,1-ij]quinolin-8-yl)-pyridin-3-ylmethyl]-amide] | 2260 nM | 27 nM |
| Cc1c(-c2cc3c(cc2F)N(C)C(=O)CC3)cncc1C(C)N (single isomer, unassigned) [Example 253, 6-[5-((R or S)-1-Amino-ethyl)-4-methyl-pyridin-3-yl]-7-fluoro-1-methyl-3,4-dihydro-1H-quinolin-2-one hydrochloride] | 4480 nM | 193 nM |
| CN1C(=O)CCc2cc(-c3cncc(O[C@@H]4CCNC4)c3)ccc21 [Example 68, 1-Methyl-6-[5-((R)-pyrrolidin-3-yloxy)-pyridin-3-yl]-3,4-dihydro-1H-quinolin-2-one hydrochloride] | 33700 nM | 350 nM |
| Cc1c(CN)cncc1-c1cc2c(cc1F)N(C)C(=O)CC2 [Example 226, 6-(5-Aminomethyl-4-methyl-pyridin-3-yl)-7-fluoro-1-methyl-3,4-dihydro-1H-quinolin-2-one hydrochloride] | 1770 nM | 11 nM |
